Data as given in patent publication US20230085307A1, “PYRIDAZINONE COMPOUND AND HERBICIDE” (NISSAN CHEMICAL CORPORATION, priority 2019, published 2023).

Legend:
barnyard grass [1] = test: Test Example 3: herbicidal effect by foliage application, Wagner pot (Table 18, symbol H); assay type: in vivo, barnyard grass (Echinochloa crus-galli)
Outline: (§1)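 Plants were sown in alluvial soil held under 0.1–0.5 cm standing water and grown 14 days in a greenhouse at 25–30 °C. An emulsifiable formulation, water-diluted to the set dose, was then sprayed onto the foliage, and effects were scored three weeks later using previously defined criteria.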

velvetleaf [2] = test: Test Example 4: herbicidal effect by soil treatment (Table 19, symbol M); assay type: in vivo, velvetleaf (Abutilon theophrasti)
Outline: (§2)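 Three weeks of greenhouse growth at 25° C. to 30° C. followed a uniform surface spray of water-diluted emulsion at a predetermined herbicide amount. Seeds had been sown beforehand under about 1.5 cm of sterilized diluvial soil. Grading followed criteria set out in an earlier test.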

Japanese bulrush = test: Test Example 1: herbicidal activity, application before weed generation under submerged conditions (Table 16, symbol B); assay type: in vivo, Japanese bulrush (Schoenoplectus juncoides)
Outline: (§3)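 Submerged Wagner pots (alluvial soil, 4 cm water) sown with weed seeds and planted with 2.5-leaf rice seedlings; emulsifiable concentrate diluted in water applied to water surface on sowing day. Held in greenhouse at 25-30 °C; injury scored 0-5 by herbicidal rate after three weeks.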

wild oat [3] = test: Test Example 5: herbicidal effect by foliage application, plastic box (Table 20, symbol I); assay type: in vivo, wild oat (Avena fatua); settings: foliage application, 3 weeks after application
Outline: (§4)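 Plants sown in sterilized diluvial soil and grown 14 days in a greenhouse at 25° C to 30° C, then sprayed on the foliage with the compound's emulsion diluted in water to a predetermined herbicide amount. Injury to weeds and crops scored three weeks after application on a visual rating scale.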

oval-leafed pondweed = test: Test Example 1: herbicidal activity, application before weed generation under submerged conditions (Table 16, symbol C); assay type: in vivo, oval-leafed pondweed (Monochoria vaginalis)
Outline: as §3

lambsquarters = test: Test Example 4: herbicidal effect by soil treatment (Table 19, symbol O); assay type: in vivo, lambsquarters (Chenopodium album)
Outline: as §2

windgrass [4] = test: Test Example 4: herbicidal effect by soil treatment (Table 19, symbol L); assay type: in vivo, windgrass (Apera spica-venti)
Outline: as §2

late watergrass = test: Test Example 2: herbicidal activity, application during weed generation under submerged conditions (Table 17, symbol A); assay type: in vivo, late watergrass (Echinochloa oryzicola); settings: application during weed generation, submerged conditions
Outline: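 Steps: fill Wagner pots with alluvial soil; add water to give 4 cm depth; sow the species mixed; grow under glass at 25–30° C.; at 1–2 leaves apply water-diluted emulsion formulation to the water surface at a fixed herbicide amount; score after 3 weeks.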

green foxtail = test: Test Example 5: herbicidal effect by foliage application, plastic box (Table 20, symbol G); assay type: in vivo, green foxtail (Setaria viridis); settings: foliage application, 3 weeks after application
Outline: as §4

blackgrass = test: Test Example 5: herbicidal effect by foliage application, plastic box (Table 20, symbol J); assay type: in vivo, blackgrass (Alopecurus myosuroides); settings: foliage application, 3 weeks after application
Outline: as §4

windgrass [5] = test: Test Example 5: herbicidal effect by foliage application, plastic box (Table 20, symbol L); assay type: in vivo, windgrass (Apera spica-venti); settings: foliage application, 3 weeks after application
Outline: as §4

barnyard grass [6] = test: Test Example 4: herbicidal effect by soil treatment (Table 19, symbol H); assay type: in vivo, barnyard grass (Echinochloa crus-galli)
Outline: as §2

Chinese sprangletop = test: Test Example 3: herbicidal effect by foliage application, Wagner pot (Table 18, symbol D); assay type: in vivo, chinese sprangletop (Leptochloa chinensis)
Outline: as §1

velvetleaf [7] = test: Test Example 5: herbicidal effect by foliage application, plastic box (Table 20, symbol M); assay type: in vivo, velvetleaf (Abutilon theophrasti); settings: foliage application, 3 weeks after application
Outline: as §4

rice flat sedge = test: Test Example 3: herbicidal effect by foliage application, Wagner pot (Table 18, symbol E); assay type: in vivo, rice flat sedge (Cyperus iria)
Outline: as §1

wild oat [8] = test: Test Example 4: herbicidal effect by soil treatment (Table 19, symbol I); assay type: in vivo, wild oat (Avena fatua)
Outline: as §2

## C#CC(C)Oc1ccc(-c2sc3ccccc3c2-c2c(OCOCCOC)c(C)nn(C)c2=O)cc1 (racemic) [1-218]
Barnyard grass [1]; 100 g/ha
  herbicidal effect on H (barnyard grass), rating 0-5: 4 (Herbicidal rate of 70% or more and less than 90%)
Velvetleaf [2]; AAH 187 g/ha
  M: velvetleaf, herbicidal effect rating: 0 (Herbicidal rate of 5% or less (almost no effect))
Japanese bulrush; 100 g/ha applied herbicide
  Herbicidal effect on B: Japanese bulrush (grade 0-5): 3 (Herbicidal rate of 40% or more and less than 70%)
Wild oat [3]; 187 g/ha
  effect on wild oat (I): 0 (Herbicidal rate of 5% or less (almost no effect))
oval-leafed pondweed; 100 g/ha applied herbicide
  Herbicidal effect on C: oval-leafed pondweed (grade 0-5): 0 (Herbicidal rate of 5% or less (almost no effect))
lambsquarters; AAH 187 g/ha
  O: lambsquarters, herbicidal effect rating: 3 (Herbicidal rate of 40% or more and less than 70%)
Windgrass [4]; AAH 187 g/ha
  L: windgrass, herbicidal effect rating: 0 (Herbicidal rate of 5% or less (almost no effect))
Late watergrass; AAH 100 g/ha
  herbicidal effect rating, A: late watergrass: 3 (Herbicidal rate of 40% or more and less than 70%)
Green foxtail; 187 g/ha
  effect on green foxtail (G): 5 (Herbicidal rate of 90% or more (almost completely withered))
blackgrass; 187 g/ha
  effect on blackgrass (J): 4 (Herbicidal rate of 70% or more and less than 90%)
Windgrass [5]; 187 g/ha
  effect on windgrass (L): 0 (Herbicidal rate of 5% or less (almost no effect))
Barnyard grass [6]; AAH 187 g/ha
  H: barnyard grass, herbicidal effect rating: 2 (Herbicidal rate of 20% or more and less than 40%)
Chinese sprangletop; 100 g/ha
  herbicidal effect on D (Chinese sprangletop), rating 0-5: 4 (Herbicidal rate of 70% or more and less than 90%)
Velvetleaf [7]; 187 g/ha
  effect on velvetleaf (M): 4 (Herbicidal rate of 70% or more and less than 90%)
Rice flat sedge; 100 g/ha
  herbicidal effect on E (rice flat sedge), rating 0-5: 4 (Herbicidal rate of 70% or more and less than 90%)
Wild oat [8]; AAH 187 g/ha
  I: wild oat, herbicidal effect rating: 0 (Herbicidal rate of 5% or less (almost no effect))

## CCC(COc1ccc(-c2sc3ccccc3c2-c2c(O)c(C)nn(C)c2=O)cc1)OC (racemic) [1-230]
Barnyard grass [1]; 320 g/ha
  herbicidal effect on H (barnyard grass), rating 0-5: 5 (Herbicidal rate of 90% or more (almost completely withered))
Velvetleaf [2]; AAH 320 g/ha
  M: velvetleaf, herbicidal effect rating: 4 (Herbicidal rate of 70% or more and less than 90%)
Japanese bulrush; 320 g/ha applied herbicide
  Herbicidal effect on B: Japanese bulrush (grade 0-5): 5 (Herbicidal rate of 90% or more (almost completely withered))
Wild oat [3]; 320 g/ha
  effect on wild oat (I): 4 (Herbicidal rate of 70% or more and less than 90%)
oval-leafed pondweed; 320 g/ha applied herbicide
  Herbicidal effect on C: oval-leafed pondweed (grade 0-5): 4 (Herbicidal rate of 70% or more and less than 90%)
lambsquarters; AAH 320 g/ha
  O: lambsquarters, herbicidal effect rating: 5 (Herbicidal rate of 90% or more (almost completely withered))
Windgrass [4]; AAH 320 g/ha
  L: windgrass, herbicidal effect rating: 0 (Herbicidal rate of 5% or less (almost no effect))
Late watergrass; AAH 320 g/ha
  herbicidal effect rating, A: late watergrass: 4 (Herbicidal rate of 70% or more and less than 90%)
Green foxtail; 320 g/ha
  effect on green foxtail (G): 5 (Herbicidal rate of 90% or more (almost completely withered))
blackgrass; 320 g/ha
  effect on blackgrass (J): 5 (Herbicidal rate of 90% or more (almost completely withered))
Windgrass [5]; 320 g/ha
  effect on windgrass (L): 4 (Herbicidal rate of 70% or more and less than 90%)
Barnyard grass [6]; AAH 320 g/ha
  H: barnyard grass, herbicidal effect rating: 3 (Herbicidal rate of 40% or more and less than 70%)
Chinese sprangletop; 320 g/ha
  herbicidal effect on D (Chinese sprangletop), rating 0-5: 5 (Herbicidal rate of 90% or more (almost completely withered))
Velvetleaf [7]; 320 g/ha
  effect on velvetleaf (M): 5 (Herbicidal rate of 90% or more (almost completely withered))
Rice flat sedge; 320 g/ha
  herbicidal effect on E (rice flat sedge), rating 0-5: 3 (Herbicidal rate of 40% or more and less than 70%)
Wild oat [8]; AAH 320 g/ha
  I: wild oat, herbicidal effect rating: 0 (Herbicidal rate of 5% or less (almost no effect))
